From US20210116454A1, “METHODS FOR TREATING A HEMATOLOGICAL CANCER AND THE USE OF COMPANION BIOMARKERS FOR 2-(2,6-DIOXOPIPERIDIN-3-YL)-4-((2-FLUORO-4-((3-MORPHOLINOAZETIDIN-1-YL)METHYL)BENZYL)AMINO)ISOINDOLINE-1,3-DIONE” (CELGENE CORPORATION, priority 2019, published 2021)

Columns and labels:
Experiment in all cases: Cell proliferation in CRBN^-/- (knock out) cells, 5 days
Type in all cases: cell-based
[1] = tested on: SU-DHL2 CRBN^-/- cells; details: Homo sapiens, SU-DHL-2, 120 h
From the text: (§1) The activated B-cell (ABC) and MYC/BCL2 double expressor cell lines SU-DHL-2 and RIVA, the germinal center B-cell (GCB) and MYC/BCL2 double hit cell lines (and expressing BCL6) Karpas-422, SU-DHL-10, WSU-DLCL2, and the primary mediastinal B-cell lymphoma (PMBL) cell line Farage were infected with a CAS9 expressing lentivirus construct to generate the control CAS9 expressing cells. The Cas9 cells had wild type cereblon expression (CRBN^WT).
(§2) To generate the cereblon knock out cells (CRBN^−/−), the individual control CAS9 cells were infected with a construct expressing a subgenomic single guide RNA (sgRNA). Western blot analysis confirmed the absence of cereblon protein in the CRBN^−/− cells, relative to the levels of the housekeeping protein β-tubulin. The CRBN^WT and CRBN^−/− cells were treated with increasing concentrations of Compound 1 for five days.

[2] = tested on: SU-DHL10 CRBN^-/- cells; details: Homo sapiens, 120 h
From the text: as §1, §2

[3] = tested on: RIVA CRBN^-/- cells; details: 120 h
From the text: as §1, §2

[4] = tested on: Karpas-422 CRBN^-/- cells; details: Homo sapiens, 120 h
From the text: as §1, §2

[5] = tested on: WSU-DLCL2 CRBN^-/- cells; details: Homo sapiens, WSUDLCL2, 120 h
From the text: as §1, §2

[6] = tested on: Farage CRBN^-/- cells; details: 120 h
From the text: as §1, §2

Measured: IC50

O=C1CC[C@H](N2C(=O)c3cccc(NCc4ccc(CN5CC(N6CCOCC6)C5)cc4F)c3C2=O)C(=O)N1 [Compound 1, (S)-2-(2,6-dioxopiperidin-3-yl)-4-((2-fluoro-4-((3-morpholinoazetidin-1-yl)methyl)benzyl)amino)isoindoline-1,3-dione]
> 10 µM: all assays above
